Source: patent publication US20130095512A1, “DEVICE FOR SORTING, CLASSIFYING, AND ASSAYING PARTITION BEHAVIOR OF CELL MEMBRANE BIOMOLECULES AND METHODS BASED THEREON” (Cornell University, priority 2010, published 2013)

Tests used:
Assay type in all cases: physicochemical
[1] = Lipid diffusion measurements by fluorescence recovery after photobleaching (FRAP) in supported lipid bilayers
Experimental: Lipid Diffusion Measurements. Diffusion coefficients of all biomolecule targets in each phase were determined by fluorescence recovery after photobleaching (FRAP). To measure the diffusion coefficient and mobile fraction of the biomolecule in a supported bilayer, liposomes of the same composition used in experiments were prepared with 0.1% of either BODIPY DHPE or GM1. 0.5 mg/ml liposomes were incubated in a PDMS well attached to a piranha cleaned slide. Lipid vesicles were allowed to incubate for 5 minutes, before being rinsed with buffer for one minute. In the case of the POPC-rich phase bilayer, the entire process is at room temperature. In the case of the raft phase bilayer, the prepared vesicle solutions were heated to 65° C. (a temperature above the miscibility transition temperature of the lipid mixture). The warm vesicle solutions were added to wells heated to 65° C. and were later rinsed with the buffer at 65° C. Following the formation of the raft phase bilayer, the heated sample was gently cooled down to room temperature prior measuring the diffusion coefficient.
To aid in focusing on the plane of the bilayer on the microscope, the bilayer was scratched with a dissection tool to remove a thin line of bilayer. Following the scratching step, the bilayer was rinsed again for one minute with buffer to remove any lipids in the bulk that were removed by scratching. A 20 μm diameter spot in the supported lipid bilayer was bleached with a laser for 200 ms. The recovery of the photobleached spot was recorded for 10 minutes for the POPC-rich phase sample and one hour for the raft phase sample. The fluorescence intensity of the bleached spot was determined after background subtraction and normalization for each image. The recovery data was fit using the method of Soumpasis (Zheng Y Z, Foster L J. Biochemical and Proteomic Approaches for the Study of Membrane Microdomains. Proteomics. 2009; 72:12-22). The diffusion coefficient, D, was then calculated using the following equation: D=w^2/4t1/2, where w is the full width at half-maximum of the Gaussian profile of the focused beam. The average diffusion coefficient and mobile fractions were determined from three separate samples of each sample and are listed in Table 2. These values are in line with numerous reports of lipid diffusion in supported bilayers.

[2] = Partitioning kinetics of membrane biomolecules in patterned two-phase coexistent supported lipid bilayers in a microfluidic channel (BPD); conditions: for K (eq) partition coefficient: concentration in raft phase over POPC-rich phase from fluorescence intensity after equilibrating 2 hrs; for k+ (association rate constant): from POPC-rich phase (70/20/10 POPC/PSM/Chol) to raft phase, first order, initial slope of NR-α plot; for k− (dissociation rate constant): from raft phase to POPC-rich phase, reversed flow after 2 hrs equilibration; for K (=k+/k−) partition coefficient: ratio of association/dissociation kinetic parameters; for partitioning between raft phase and POPC-rich phase at equilibrium: flow stopped, equilibrated for 2 hrs
From the text: Preparation of patterned two-phase coexistent lipid bilayers in a microfluidic device. Supported lipid bilayers (SLBs) are commonly formed by the rupture and self-assembly of large unilamellar lipid vesicles in solution onto glass (Brian, A. A.; McConnell, H. M. Proc. Natl. Acad. Sci. USA 1984, 81, 6159; Johnson, J. M.; Ha, T.; Chu, S.; Boxer, S. G. Biophysical Journal 2002, 83, 3371) or other oxidized supports (Richter, R. P.; Borat, R.; Brisson, A. R. Langmuir 2006, 22, 3497), as illustrated in FIG. 17a. A bilayer is formed during laminar flow conditions instead of under stagnant incubation. Laminar flow is an advantage for patterning heterogeneous bilayers in microfluidic channels because reagents follow streamlines with minimal mixing (Kam, L.; Boxer, S. G. Journal of the American Chemical Society 2000, 122, 12901). Thus, lipid vesicles of different compositions can be sent through the channel on different streamlines and upon rupture will form contiguous, parallel bilayers of different compositions with stable interfaces, if the compositions are chosen so that they are phase stable.
Formation of contiguous patterned membrane and loading and transport of membrane-bound biomolecules. […] A contiguous lipid membrane is formed with POPC-rich phase (70/20/10 molar ratio of POPC/PSM/Chol), raft phase (60/40 molar ratio of PSM/Chol), and the membrane loaded with 1 mol % of Alexa-594 head-labeled GM1 and 1 mol % of head-labeled BODIPY-DHPE doped in the POPC-rich phase.
Partitioning kinetic measurements by monitoring species' concentrations in the raft phase with time. […] The partitioning assay was carried out in three stages: association stage, equilibrium stage, and dissociation stage (FIGS. 13a-c). The experimental procedure and analyses are somewhat analogous to the measurement of adsorption/desorption binding kinetics by surface plasmon resonance (SPR) (Wegner, G. J.; Wark, A. W.; Lee, H. J.; Codner, E.; Saeki, T.; Fang, S.; Corn, R. M. Analytical Chemistry 2004, 76, 5677), except here there is a 2-D planar geometry and observing association/dissociation kinetics of membrane-bound biomolecules to/from a lipid membrane phase along an interface. To obtain association kinetics from POPC-rich phase to raft phase, target species in the POPC-rich phase were brought to a pristine raft phase and the amount entering into the raft phase in the control volume was monitored with time (FIG. 13a, stage 1). After most of the species initially loaded in the channel entered into the main partitioning channel, the next step was to stop the convective flow and wait until the system equilibrated (FIG. 13a, stage 2). Equilibration was confirmed when the concentration profile no longer changed across the channel. Finally, to obtain dissociation kinetics, the net amount of species leaving the raft phase was monitored when the hydrodynamic flow was reversed and fresh POPC-rich phase membrane could be monitored for the re-association of molecules now moving from the raft phase back into the POPC-rich phase (FIG. 13a, stage 3). Three different molecules were tested: Alex594-head-labeled GM1, BODIPY-tail-labeled GM1, and head-labeled BODIPY-DHPE.
Theory of partitioning kinetic analyses. The association/dissociation kinetics of fluorescently-labeled species was analyzed into/from the raft phase using a mass-balance approach. A control volume used for the mass balance is illustrated in FIG. 14. The accumulation of species in the raft phase over time can be represented as:
Association kinetic analysis. To obtain the association kinetic information from the POPC-rich phase to the raft phase, the experiment was operated in such a way so that only the association term, r+, is important and the dissociation term and the convective flow rate terms can be neglected in Equation 1. At the beginning of the experiment, a hydrodynamic force was provided to move the species into the control volume (the white box in FIG. 14). […]

[3] = Partitioning in the BPD on CTB binding; conditions: CTB binds to GM1
From the text: βCD-mediated efflux is used to disrupt raft microdomains and stimulate a change in GM1 partitioning. Changes in partitioning of both GM1 and PLAP can also be induced by binding to CTB and/or antibodies (Kahya N, Brown D A, Schwille P. Raft Partitioning and Dynamic Behavior of Human Placental Alkaline Phosphatase in Giant Unilamellar Vesicles. Biochemistry. 2005; 44:7479-89). Antibody binding is known to cause several-fold enrichment in the raft phase of both targets and detection will be straightforward using fluorescence labels or conjugates.

[4] = Stamped patterned bilayers, electric field-induced migration and partitioning into raft regions; conditions: stamped raft regions in fluid phase bilayer, FIG. 3
From the text: In one embodiment, the separation bilayer is patterned with multiple phases (raft and non-raft) that interact with species differentially to effect a separation analogous to a chromatographic separation strategy (FIG. 3). Here differently partitioning behavior serves to change the mobility of one species relative to the other such that they become separated. FIG. 3 illustrates how patterned bilayers of a BPD can be made and used for separation purposes. In one embodiment of the method for making a BPD, the steps can comprise: (A) Forming a bilayer via vesicle fusion of one composition, then (B) selectively remove by stamping regions where the second phase is desired. Back filling with the second vesicles (B). Stamping out a thin section of bilayer where a third vesicle formulation fuses; these vesicles contain the species to be separated (denoted by the mixture of light and dark circles arranged in a thin rectangle). An electric field can then be applied to induce the mixed charged species to migrate through the bilayer and partition as they sample the different regions of the bilayer. […] The GM1 is labeled with Alexa-594, which makes it, and the rafts in which they are located, appear bright.

[5] = POPC-rich phase (70/20/10 POPC/PSM/Chol)

BODIPY®FL C5-ganglioside GM1 [Tail-labeled GM1]
Diffusion coefficient [1, 5]: 0.82 μm^2/s
Diffusion coefficient ([1]; Raft phase (60/40 PSM/Chol)): 0.08 μm^2/s
K (eq) partition coefficient [2]: 0.75
k+ (association rate constant) [2]: 0.64 ± 0.07 μm/min
k− (dissociation rate constant) [2]: 0.72 ± 0.05 μm/min
K (=k+/k−) partition coefficient [2]: 0.89

bovine brain asialoganglioside-GM1 labeled with Alexa Fluor® 594 hydrazide [Head-labeled GM1]
Diffusion coefficient ([1]; POPC-rich phase): 0.77 μm^2/sec
Diffusion coefficient [1, 5]: 0.77 μm^2/s
Diffusion coefficient ([1]; Raft phase (60/40 PSM/Chol)): 0.06 μm^2/s
rate for a molecule to diffuse to the interface ([1]; diffusion coefficient/distance, 1 μm away in the POPC-rich phase, rough estimate): 0.77 μm/sec
Diffusion coefficient ([1]; raft phase): 0.06 μm^2/sec
diffusion rate from the interface into the middle of the raft patch ([1]; ~100 nm, raft phase, estimate): 0.6 μm/sec
enrichment in the raft phase on CTB binding [3]: enrichment was observed
partitioning into raft regions [4]: preferential partitioning of GM1 lipids into raft regions
K (eq) partition coefficient [2]: 1.96
partitioning between raft phase and POPC-rich phase at equilibrium [2]: Most of GM1 partitions to the raft phase
k+ (association rate constant) [2]: 1.53 ± 0.03 μm/min
rate of the molecule to pass across the interface ([2]; from Table 1): ~0.025 µm/s
k− (dissociation rate constant) [2]: 0.85 ± 0.03 μm/min
K (=k+/k−) partition coefficient [2]: 1.8

CCCCCCCCCCCCCCCC(=O)OC[C@H](COP(=O)(O)OCCNC(=O)CCc1ccc2n1[B-](F)(F)[N+]1=C(C)C=C(C)C1=C2)OC(=O)CCCCCCCCCCCCCCC.CCN(CC)CC [Head-labeled BODIPY-DHPE, N-(4,4-difluoro-5,7-dimethyl-4-bora-3a,4a-diaza-s-indacene-3-propionyl)-1,2-dihexadecanoyl-sn-glycero-3-phosphoethanolamine, triethylammonium salt]
Diffusion coefficient [1, 5]: 0.63 μm^2/s
Diffusion coefficient ([1]; Raft phase (60/40 PSM/Chol)): 0.05 μm^2/s
partitioning into raft regions [4]: exclusion of BODIPY DHPE lipids from rafts regions
K (eq) partition coefficient [2]: 0.6
partitioning between raft phase and POPC-rich phase at equilibrium [2]: most of BODIPY-DHPE remains in the POPC-rich phase
k+ (association rate constant) [2]: 0.57 ± 0.08 μm/min
k− (dissociation rate constant) [2]: 0.98 ± 0.04 μm/min
K (=k+/k−) partition coefficient [2]: 0.58
